biological target: T1, hNPRA (Homo sapiens, UniProt P16066); experiment: NPRA Functional Cell Assay (cGMP HTRF, NPRA HEK JumpIn stable cells); type: cell-based; details: cGMP production, 1 hour at 37° C., 10-point dose response
T1 construct: expressed in transfected cells
T1 sequence (P16066 33-1061): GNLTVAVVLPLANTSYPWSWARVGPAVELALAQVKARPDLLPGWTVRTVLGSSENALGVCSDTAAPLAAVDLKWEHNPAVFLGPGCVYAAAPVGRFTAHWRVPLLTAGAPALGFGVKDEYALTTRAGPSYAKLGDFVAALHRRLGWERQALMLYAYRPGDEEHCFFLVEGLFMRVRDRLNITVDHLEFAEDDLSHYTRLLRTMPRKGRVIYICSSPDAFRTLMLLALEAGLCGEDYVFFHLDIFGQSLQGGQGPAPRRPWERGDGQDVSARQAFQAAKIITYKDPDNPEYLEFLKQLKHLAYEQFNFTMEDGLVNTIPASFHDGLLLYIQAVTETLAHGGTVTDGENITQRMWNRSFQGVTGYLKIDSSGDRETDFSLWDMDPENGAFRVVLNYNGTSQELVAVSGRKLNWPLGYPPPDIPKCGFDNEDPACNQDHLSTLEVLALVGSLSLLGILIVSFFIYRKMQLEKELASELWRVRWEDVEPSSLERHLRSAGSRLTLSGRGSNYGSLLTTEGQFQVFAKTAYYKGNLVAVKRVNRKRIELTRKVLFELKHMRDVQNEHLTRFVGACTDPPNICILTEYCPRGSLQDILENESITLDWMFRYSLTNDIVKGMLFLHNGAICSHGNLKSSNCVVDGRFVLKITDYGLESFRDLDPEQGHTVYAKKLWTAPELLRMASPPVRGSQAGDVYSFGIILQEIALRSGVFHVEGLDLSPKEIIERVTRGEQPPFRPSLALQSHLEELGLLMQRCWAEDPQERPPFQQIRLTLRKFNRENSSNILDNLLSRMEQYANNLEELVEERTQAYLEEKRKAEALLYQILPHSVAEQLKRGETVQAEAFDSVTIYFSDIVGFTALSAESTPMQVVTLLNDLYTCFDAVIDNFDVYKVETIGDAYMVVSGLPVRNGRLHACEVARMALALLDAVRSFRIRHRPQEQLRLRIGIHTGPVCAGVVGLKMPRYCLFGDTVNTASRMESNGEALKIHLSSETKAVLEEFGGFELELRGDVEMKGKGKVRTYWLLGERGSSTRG
Method in brief: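 cGMP HTRF read-out after 1 hour compound treatment at 37° C. of human NPRA-expressing HEK JumpIn cells, 1500 cells/well, in buffer with phosphodiesterase inhibitors IBMX and RO20 (100 uM each). Signal converted to [cGMP] by calibration curve; EC50s fitted by 4-parameter logistic; 50 nM h-ANP as positive response.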

Question: How did the EC50 turn out when `CN(C)CC[C@@H](NC(=O)c1nc2cc3c(nc2s1)CC[C@H](C(C)(C)C)C3)c1cccc(C(=O)N2CC(C)(O)C2)c1` (racemic) [Example 93, rac-(7S)-7-tert-butyl-N-[rac-(1R)-3-(dimethylamino)-1-[3-(3-hydroxy-3-methyl-azetidine-1-carbonyl)phenyl]propyl]-5,6,7,8-tetrahydrothiazolo[5,4-b] quinoline-2-carboxamide] was run?
Answer: 527 nM

Question: How did the EC50 turn out when `CN(C)CC[C@@H](NC(=O)c1nc2cc3c(nc2s1)CC[C@H](C(C)(C)C)C3)c1cccc(C(=O)N2CC(N)C2)c1` (racemic) [Example 94, rac-(7S)-7-tert-butyl-N-[rac-(1R)-1-[3-(3-aminoazetidine-1-carbonyl)phenyl]-3-(dimethylamino)propyl]-5,6,7,8-tetrahydrothiazolo [5,4-b]quinoline-2-carboxamide] was run?
Answer: 566 nM

Question: For `CN(C)CC[C@@H](NC(=O)c1nc2cc3c(nc2s1)CC[C@H](C(C)(C)C)C3)c1cccc(C(=O)NCCO)c1` (racemic) [Example 95, rac-(7S)-7-tert-butyl-N-[rac-(1R)-3-(dimethylamino)-1-[3-(2-hydroxyethylcarbamoyl)phenyl]propyl]-5,6,7,8-tetrahydrothiazolo[5,4-b] quinoline-2-carboxamide], which EC50 is on record?
Answer: 690 nM

Question: For `CN(C)CC[C@@H](NC(=O)c1nc2cc3c(nc2s1)CC[C@H](C(C)(C)C)C3)c1cccc(C(=O)N2CCOCC2)c1` (racemic) [Example 96, rac-(7S)-7-tert-butyl-N-[rac-(1R)-3-(dimethylamino)-1-[3-(morpholine-4-carbonyl)phenyl]propyl]-5,6,7,8-tetrahydrothiazolo[5,4-b] quinoline-2-carboxamide], which EC50 is on record?
Answer: 1020 nM

Question: `CN(C)CC[C@@H](NC(=O)c1nc2cc3c(nc2s1)CC[C@H](C(C)(C)C)C3)c1cccc(C(=O)N2CCNCC2)c1` (racemic) [Example 97, rac-(7S)-7-tert-butyl-N-[rac-(1R)-3-(dimethyl-amino)-1-[3-(piperazine-1-carbonyl)phenyl]propyl]-5,6,7,8-tetrahydrothiazolo[5,4-b] quinoline-2-carboxamide] was tested. Which EC50 did it give?
Answer: 1380 nM

Question: With `CNC(=O)c1cccc([C@@H](CCN(C)C)NC(=O)c2nc3cc4c(nc3s2)CC[C@H](C(C)(C)C)C4)c1` (racemic) [Example 98, rac-(7S)-7-tert-butyl-N-[rac-(1R)-3-(dimethyl-amino)-1-[3-(methylcarbamoyl)phenyl]propyl]-5,6,7,8-tetrahydrothiazolo[5,4-b] quinoline-2-carboxamide] as the compound, how does the EC50 read?
Answer: 1450 nM

Question: How did the EC50 turn out when `CN(C)CC[C@@H](NC(=O)c1nc2cc3c(nc2s1)CC[C@H](C(C)(C)C)C3)c1cccc(C(N)=O)c1` (racemic) [Example 99, rac-(7S)-7-tert-butyl-N-[rac-(1R)-1-(3-carbamoylphenyl)-3-(dimethylamino)propyl]-5,6,7,8-tetrahydrothiazolo[5,4-b] quinoline-2-carboxamide] was run?
Answer: 1830 nM

Question: Which EC50 does the source give for `CN(C)CC[C@@H](NC(=O)c1nc2cc3c(nc2s1)CC[C@H](C(C)(C)C)C3)c1cccc(C(=O)NC2CCN(CC(F)(F)F)C2)c1` (mixture of isomers) [Example 100, rac-(7S)-7-tert-butyl-N-[rac-(1R)-3-(dimethyl-amino)-1-[3-[[1-(2,2,2-trifluoroethyl)pyrrolidin-3-yl]carbamoyl]phenyl]propyl]-5,6,7,8-tetrahydrothiazolo[5,4-b] quinoline-2-carboxamide] here?
Answer: 2000 nM

Question: For `CN1CC(NC(=O)c2cccc([C@@H](CCN3CCC(CC(=O)O)CC3)NC(=O)c3nc4cc5c(nc4s3)CC[C@H](C(C)(C)C)C5)c2)C1` (racemic) [Example 101, 2-[1-[rac-(3R)-3-[3-[(1-methylazetidin-1-ium-3-yl)carbamoyl]phenyl]-3-[[rac-(7S)-7-tert-butyl-5,6,7,8-tetrahydrothiazolo [5,4-b]quinoline-2-carbonyl]amino]propyl]-4-piperidyl]acetic acid; 2,2,2-trifluoroacetate], which EC50 is on record?
Answer: 146 nM

Question: For `CN1CC(NC(=O)c2cccc([C@@H](CCN3CCC(CCO)CC3)NC(=O)c3nc4cc5c(nc4s3)CC[C@H](C(C)(C)C)C5)c2)C1` (racemic) [Example 102, rac-(7S)-7-tert-butyl-N-[rac-(1R)-3-[4-(2-hydroxyethyl)-1-piperidyl]-1-[3-[(1-methylazetidin-1-ium-3-yl)carbamoyl]phenyl]propyl]-5,6,7,8-tetrahydrothiazolo[5,4-b] quinoline-2-carboxamide; 2,2,2-trifluoroacetate], which EC50 is on record?
Answer: 158 nM

Question: How did the EC50 turn out when `CN1CC(NC(=O)c2cccc([C@@H](CCN3CCC(c4nnn[nH]4)CC3)NC(=O)c3nc4cc5c(nc4s3)CC[C@H](C(C)(C)C)C5)c2)C1` (racemic) [Example 103, rac-(7S)-7-tert-butyl-N-[rac-(1R)-1-[3-[(1-methylazetidin-1-ium-3-yl)carbamoyl]phenyl]-3-[4-(1H-tetrazol-5-yl)-1-piperidyl]propyl]-5,6,7,8-tetrahydrothiazolo[5,4-b] quinoline-2-carboxamide; 2,2,2-trifluoroacetate] was run?
Answer: 160 nM

Question: `CN1CC(NC(=O)c2cccc([C@@H](CCN3CCC(CO)CC3)NC(=O)c3nc4cc5c(nc4s3)CC[C@H](C(C)(C)C)C5)c2)C1` (racemic) [Example 104, rac-(7S)-7-tert-butyl-N-[rac-(1R)-3-[4-(hydroxymethyl)-1-piperidyl]-1-[3-[(1-methylazetidin-1-ium-3-yl)carbamoyl]phenyl]propyl]-5,6,7,8-tetrahydrothiazolo[5,4-b] quinoline-2-carboxamide; 2,2,2-trifluoroacetate] was tested. Which EC50 did it give?
Answer: 186 nM

Question: For `CN1CC(NC(=O)c2cccc([C@@H](CCN3CCC(c4ccc(C(=O)O)cc4)CC3)NC(=O)c3nc4cc5c(nc4s3)CC[C@H](C(C)(C)C)C5)c2)C1` (racemic) [Example 105, 4-[1-[rac-(3R)-3-[3-[(1-methylazetidin-1-ium-3-yl)carbamoyl]phenyl]-3-[rac-(7S)-7-tert-butyl-5,6,7,8-tetrahydrothiazolo [5,4-b]quinoline-2-carbonyl]amino]propyl]-4-piperidyl]benzoic acid; 2,2,2-trifluoroacetate], which EC50 is on record?
Answer: 315 nM

Question: With `CN1CC(NC(=O)c2cccc([C@@H](CCN3CCC[C@H]3CC(=O)O)NC(=O)c3nc4cc5c(nc4s3)CC[C@H](C(C)(C)C)C5)c2)C1` (racemic) [Example 106, 2-[rac-(2S)-1-[rac-(3R)-3-[3-[(1-methylazetidin-1-ium-3-yl)carbamoyl]phenyl]-3-[rac-(7S)-7-tert-butyl-5,6,7,8-tetrahydrothiazolo[5,4-b]quinoline-2-carbonyl]amino]propyl] pyrrolidin-2-yl]acetic acid; 2,2,2-trifluoroacetate] as the compound, how does the EC50 read?
Answer: 521 nM

Question: How did the EC50 turn out when `CN1CC(NC(=O)c2cccc([C@@H](CCN3CCC(c4cccc(C(=O)O)c4)CC3)NC(=O)c3nc4cc5c(nc4s3)CC[C@H](C(C)(C)C)C5)c2)C1` (racemic) [Example 107, 3-[1-[rac-(3R)-3-[3-[(1-methylazetidin-1-ium-3-yl)carbamoyl]phenyl]-3-[rac-(7S)-7-tert-butyl-5,6,7,8-tetrahydrothiazolo[5,4-b]quinoline-2-carbonyl]amino]propyl]-4-piperidyl]benzoic acid; 2,2,2-trifluoroacetate] was run?
Answer: 526 nM
